Square brackets hold non-standard residues; d marks the D form. Ends that are not written are not given here. Dip = N[C@H](C(=O)O)C(c1ccccc1)c1ccccc1
Legend:
MCA205 sarcoma = conditions: mouse, in vivo
Method: Mice were subcutaneously injected into the right flank with 1×10^6 MCA205 cells. Tumour cell lines were inoculated into C57BL/6 mice. Tumour surfaces (longest dimension×perpendicular dimension) were routinely monitored by caliper. When tumours reached a size of 20-25 mm^2 (day 0), mice were administered intratumourally with three consecutive daily injections of 300 μg LTX-315. In T-cell depletion experiments (FIG. 24), anti-CD4 and anti-CD8 monoclonal antibodies (mAbs) (GK1.5 and 53-6.72, respectively; 200 μg per mouse) or their isotype controls (LTF-2 and 2A3, respectively) were injected intraperitoneally 3 and 4 days before the first LTX-315 injection and continued every other 7 days. All mAbs for in vivo use were obtained from BioXcell (West Lebanon, NH, USA), using the recommended isotype control mAbs.
Tumours and spleens were harvested 7 days after the first injection of LTX-315. Excised tumours were cut into small pieces and digested in RPMI-1640 medium containing Liberase at 25 μg/ml (Roche, Boulogne-Billancourt, France) and DNase1 at 150 UI/ml (Roche) for 30 min at 37° C. The mixture was subsequently passaged through a 100 μm cell strainer. […] All cells were analysed on a CyAn ADP (Beckman Coulter, Marseille, France) flow cytometer with FlowJo (Tree Star, Ashland, OR) software.

[1] = tested on: Human osteosarcoma U2OS cells; test: Transmission electron microscopy of U2OS cells after LTX-315; type: cell-based
Method: Cytoplasmic membrane disintegration was carried out as described in FORVEILLE S. et al., Cell Cycle 2015, 14: 3506-12.
Human osteosarcoma U2OS cells were cultured in Glutamax-containing DMEM medium supplemented with 10% fetal calf serum (FCS), and […] HEPES buffer. Cells were grown at 37° C. in a humidified incubator under a 5% CO2 atmosphere.
For ultrastructural studies, human osteosarcoma U2OS cells were fixed in 1.6% glutaraldehyde (v/v in 0.1 M phosphate buffer) for 1 h, collected by scraping, centrifuged and the pellet was post-fixed 1% osmium tetroxide (w/v in 0.1 M phosphate buffer). Following dehydration through a graded ethanol series, cells were embedded in Epon™ 812 and ultrathin sections were stained with standard uranyl acetate and lead citrate. Images were taken using a Tecnai 12 electron microscope (FEI, Eindhoven, the Netherlands).

A375 cells [2] = test: Release of ATP (luciferase bioluminescence); type: cell-based, human; conditions: 5 minutes, different concentrations
Method: The supernatant of LTX-315-treated A375 cells was analyzed using an Enliten ATP luciferase assay kit (Promega, USA). Cells were then seeded as with an ROS assay, and treated with LTX-315 in different incubation times, from 1 to 15 minutes with two parallels, which was then conducted three times. Negative controls were untreated A375 cells exposed to serum-free media alone. Samples were diluted at 1:50 and 1:100, and analyzed with a Luminoscan RT luminometer according to the manufacturer's protocol.

human A547 cells = test: TEM of A547 cells, mitochondrial membrane; type: cell-based; conditions: 10 μg/ml, 60 minutes
A375 cells [3] = test: Confocal imaging with Mitotracker (mitochondrial membrane potential); type: cell-based, human; conditions: short time after peptide treatment; data not shown
Method: Fixed cells, mitotracker—Cells were seeded as for live cell imaging, and treated with Mitotracker CMH2XROS (Invitrogen) at […] for 15 minutes prior to peptide treatment. Cells were treated with 17 μM LTX-315, with negative control serum-free RPMI only. After 60 min of incubation, cells were analyzed using a Zeiss microscope.

rat sarcoma model = test: Rat sarcoma model with three lesions, tumour growth by live imaging; type: in vivo; conditions: LTX-315 injected into one subcutaneous lesion
A375 cells [4] = test: Release of cytochrome-C (ELISA); type: cell-based, human; conditions: 35 μM
Method: A375 cells were seeded as with HMGB1 studies, and treated with 35 μM for different time points (5, 15, 45). Supernatants were collected and concentrated as with HMGB1 studies, and samples from the supernatants were analyzed using a 4.5 hour solid form Cytochrome C-Elisa kit (R&D Systems, USA, #DCTC0) following the manufacturer's description. Shortly thereafter, a 50% diluted sample was analyzed and the optical density was determined using a microplate reader set at 450 nm, and […]. A standard curve was generated for each set of samples assayed. Samples were run in four parallels, and the cytochrome-c released into the supernatant was expressed as a fold over the level of cytochrome-c in the supernatant of untreated cells.

A375 cells [5] = test: Fluorescence measurement of reactive oxygen species (DCFDA); type: cell-based, human; conditions: 15 minutes of incubation, different concentrations
Method: A DCFDA cellular reactive oxygen species detection assay kit was purchased from abcam®, and A375 cells seeded in a 96-well Costar black clear bottom plate with 20,000 cells per well incubated in 37° C. 16 hours prior to DCFDA assay. Cells were washed with a 100 μL/well of pre-warmed PBS one time, and incubated with 20 µM of DCFDA in a buffer solution supplied with the kit at 37° C. in a cell culture incubator for 45 min, and then washed again with a buffer solution of 100 μL/well. […] The fluorescence intensity was determined at an excitation wavelength of 485 nm and an emission wavelength of 530 nm on a FLUOstar Galaxy plate reader.

B16F1 melanoma cells = test: Kill kinetics (MTT); type: cell-based, murine
Method: Cells were seeded as previously described for MTT assay, and incubated with LTX-401 solutions for 5, 15, 30, 60, 90, 120 and 240 minutes. Cells were washed once with 100 μl of serum-free RPMI-1640 after incubation, and further incubated in a 10% MTT solution (diluted in a serum-free RPMI-1640) for an additional 2 h.

Compound	cytotoxic CD4+ TILs in tumour beds (IFNγ+, IL-17+, IFNγ+ IL-17+) (MCA205 sarcoma)	cytotoxic CD8+ TILs in tumour beds (IFNγ+, TNFα+, IFNγ+ TNFα+) (MCA205 sarcoma)	cell morphology after administration (TEM) [1]	ATP in the supernatant (A375 cells [2])	effect on mitochondrial membrane (human A547 cells)	Mitotracker mitochondrial signal (A375 cells [3])	effect on lesions (intraperitoneal and two subcutaneous tumours) (rat sarcoma model)	cytochrome-C in the supernatant compared to untreated control cells (A375 cells [4])	ROS generation (A375 cells [5])	cell survival (B16F1 melanoma cells; 54 μM, after two hours)	time until cellular survival reduced to a minimum (B16F1 melanoma cells; 108 μM)	kill ratio (B16F1 melanoma cells; 108 μM, after 15 min)	cell death (B16F1 melanoma cells; 108 μM, two hours after start of treatment)
K-K-W-W-K-K-W-Dip-K-NH2 (KKWWKKW[Dip]K-NH2) [LTX-315]	markedly increased	markedly increased	necrotic morphology with disintegration of cytoplasmic membranes	detected in the supernatant as early as after 5 minutes of treatment	disintegration of the mitochondrial membrane	loss of mitochondrial signal	eradicated all three lesions	three times more	Significant amounts of ROS were generated	–	–	–	–
Cl.Cl.NCCNC(=O)C(CN)(CCCc1ccccc1)CCCc1ccccc1 [LTX-401]	–	–	–	–	–	–	–	–	–	50%	90 to 120 min	50%	~100%
